Marks after values point to notes of the source that are not given here.
Key:
VEGFR1 (FLT1) = target: T1, VEGFR1 (FLT1) (Homo sapiens, UniProt P17948); test: In vitro kinase assay VEGFR1 (FLT1); assay type: biochemical
T1 construct: purchased Carna Biosciences, Inc. (Kobe, Japan)
Protocol: (§1) Tyrosine kinase assays were performed by an ELISA and Off-chip Mobility Shift Assay (MSA) by Carna Biosciences, Inc. (Kobe, Japan).

VEGFR3 (FLT4) = target: T2, VEGFR3 (FLT4) (Homo sapiens, UniProt P35916); test: In vitro kinase assay VEGFR3 (FLT4); assay type: biochemical
T2 construct: purchased Carna Biosciences, Inc. (Kobe, Japan)
Protocol: as §1

FGFR1 = target: T3, FGFR1 (Homo sapiens, UniProt P11362); test: In vitro kinase assay FGFR1; assay type: biochemical
T3 construct: purchased Carna Biosciences, Inc. (Kobe, Japan)
Protocol: as §1

FGFR2 = target: T4, FGFR2 (Homo sapiens, UniProt P21802); test: In vitro kinase assay FGFR2; assay type: biochemical
T4 construct: purchased Carna Biosciences, Inc. (Kobe, Japan)
Protocol: as §1

FGFR3 = target: T5, FGFR3 (Homo sapiens, UniProt P22607); test: In vitro kinase assay FGFR3; assay type: biochemical
T5 construct: purchased Carna Biosciences, Inc. (Kobe, Japan)
Protocol: as §1

KIT = target: T6, KIT (Homo sapiens, UniProt P10721); test: In vitro kinase assay KIT; assay type: biochemical
T6 construct: purchased Carna Biosciences, Inc. (Kobe, Japan)

HUVECs [1] = test: VEGF-induced proliferation of HUVECs; assay type: cell-based; details: Homo sapiens, HUVEC, 72 h; VEGF 20 ng/mL, 3 days, WST-1
Protocol: (§2) Tumor cells were plated at 1 to 2 × 10^3 cells/well on 96-well plates in 0.1 ml of RPMI 1640 containing 10% FBS. […] The HUVEC proliferation assay were performed by a method described previously. […] After incubation for 3 days, cell viability was determined by measuring the absorbance of WST-1 reagent (DOJINDO, Kumamoto, Japan). Percent inhibition of cell growth was determined by the formula below: Inhibition (%) = Mean value of OD of control wells - OD of treated wells * 100/Mean value of OD of control wells. Each value is expressed as the mean. […] All experiments were done in either duplicate or quadruplicate.

HUVECs [2] = test: VEGF-induced sandwich tube formation (sTF) of HUVECs; assay type: cell-based; details: Homo sapiens, HUVEC, 96 h; sTF assay, EGF 10 ng/mL with VEGF 20 ng/mL, 4 days
Protocol: (§3) In vitro sandwich tube formation (sTF) assay, HUVECs in SFM containing EGF (10 ng/mL) with VEGF (20 ng/mL) or FGF2 (20 ng/ml) were plated onto the 1st layer of collagen gel (Nitta Gelatin, Tokyo, Japan) at 1.0 × 10^5 cells in 24-well plates and a 2nd layer of collagen gel was added onto the HUVECs. […] After 4 days, MTT solution was added and photomicrographs of tube formation were taken with a light microscope. The tube length of capillaries was measured using image analysis (Angiogenesis Image Analyzer, ver. 1.04; Kurabo, Osaka, Japan).

HUVECs [3] = test: FGF-2 induced proliferation of HUVECs; assay type: cell-based; details: Homo sapiens, HUVEC, 72 h; FGF2 20 ng/mL, 3 days, WST-1
Protocol: as §2

HUVECs [4] = test: FGF-2 induced sandwich tube formation (sTF) of HUVECs; assay type: cell-based; details: Homo sapiens, HUVEC, 96 h; sTF assay, EGF 10 ng/mL with FGF2 20 ng/ml, 4 days
Protocol: as §3

KP-1/VEGF transfectants = test: In vitro growth of KP-1/VEGF transfectants; assay type: cell-based; details: Homo sapiens
Protocol: as §2

MDA-MB 435 (Melanoma) = test: Tumor cell proliferation assay (MTT), MDA-MB 435; assay type: cell-based; details: Homo sapiens, read-out: IC50 in vitro anti-proliferative activity
Protocol: (§4) Tumor cells were plated at 1 to 2 × 10^3 cells/well on 96-well plates in 0.1 ml of RPMI 1640 containing 10% FBS. […] The HUVEC proliferation assay were performed by a method described previously. […] Percent inhibition of cell growth was determined by the formula below: Inhibition (%) = Mean value of OD of control wells - OD of treated wells * 100/Mean value of OD of control wells. Each value is expressed as the mean. […] All experiments were done in either duplicate or quadruplicate.

MIApaca-II (Pancreas) = test: Tumor cell proliferation assay (MTT), MIApaca-II; assay type: cell-based; details: Homo sapiens, read-out: IC50 in vitro anti-proliferative activity
Protocol: as §4

H460 (Lung) = test: Tumor cell proliferation assay (MTT), H460; assay type: cell-based; details: Homo sapiens, NCI-H460; read-out: IC50 in vitro anti-proliferative activity
Protocol: as §4

SK-OV-3 (Ovary) = test: Tumor cell proliferation assay (MTT), SK-OV-3; assay type: cell-based; details: Homo sapiens, read-out: IC50 in vitro anti-proliferative activity
Protocol: as §4

Colo205 (Colon) = test: Tumor cell proliferation assay (MTT), Colo205; assay type: cell-based; details: Homo sapiens, COLO 205, read-out: IC50 in vitro anti-proliferative activity
Protocol: as §4

A431 (Epidermoid) = test: Tumor cell proliferation assay (MTT), A431; assay type: cell-based; details: Homo sapiens, A-431, read-out: IC50 in vitro anti-proliferative activity
Protocol: as §4

DU145 (Prostate) = test: Tumor cell proliferation assay (MTT), DU145; assay type: cell-based; details: Homo sapiens, DU-145, read-out: IC50 in vitro anti-proliferative activity
Protocol: as §4

[5] = test system: MDA-MB 435 (Melanoma) xenograft; test: Subcutaneous xenograft model, MDA-MB 435; assay type: in vivo, mouse; details: MDA-MB 435 xenograft
Protocol: (§5) Tumor cells were injected subcutaneously into the right flank region of 7-week-old nude mice. […] Tumor diameters were measured with a vernier caliper and body weight was measured twice weekly. The tumor volume (mm^3) was calculated using the formula: length (mm) × width (mm)^2 × 1/2. […] When the tumor volume was reduced, the ΔT/C values were calculated by the following formula: ΔT/C (%) = (TVn - TV1)/TV1 × 100, where TVn is the tumor volume of treated mice at day n. The number of mice is ten for control group in Table 1 and five for each group in other experiments. Mice in control group were treated with vehicle.

[6] = test system: MIApaca-II (Pancreas) xenograft; test: Subcutaneous xenograft model, MIApaca-II; assay type: in vivo, mouse
Protocol: as §5

H460 (Lung) xenograft = test: Subcutaneous xenograft model, H460; assay type: in vivo, mouse
Protocol: as §5

[7] = test system: SK-OV-3 (Ovary) xenograft; test: Subcutaneous xenograft model, SK-OV-3; assay type: in vivo, mouse; details: SK-OV-3 xenograft
Protocol: as §5

[8] = test system: Colo205 (Colon) xenograft; test: Subcutaneous xenograft model, Colo205; assay type: in vivo, mouse
Protocol: as §5

[9] = test system: A431 (Epidermoid) xenograft; test: Subcutaneous xenograft model, A431; assay type: in vivo, mouse
Protocol: as §5

[10] = test system: DU145 (Prostate) xenograft; test: Subcutaneous xenograft model, DU145; assay type: in vivo, mouse
Protocol: as §5

[11] = Tolerability in tumor-bearing nude mice; assay type: in vivo
Protocol: as §5

SEKI model = test: Subcutaneous xenograft model, SEKI; assay type: in vivo, mouse; details: 100 mg/kg orally twice daily for 7 days
Protocol: as §5
Each group consisted of 5 mice. […] The relationship between the antitumor activity and MVD is shown in (B), and that between the antitumor activity and the % of pericyte coverage of vessels is shown in (C). Each symbol (○) indicates the mean of MVD or pericyte coverage in each tumor xenograft model. (D) Vascular score in the lenvatinib-sensitive and –relatively resistant groups. The vascular score was the sum of the MVD and pericyte coverage scores.

[12] = test system: VEGF-driven in vivo angiogenesis (KP-1/VEGF transfectants); test: Mouse dorsal air sac (DAS) assay, KP-1/VEGF; details: 100 and 300 mg/kg, orally once daily for 4 days
Protocol: (§6) An in vivo angiogenesis assay in mice was performed as described previously with minor changes. Millipore chambers (Millipore, Bedford, MA) were packed with 1.0 × 10^7 KP-1 mock, KP-1/VEGF or KP-1/FGF transfectants and transplanted into the dorsal air sac of C57BL/6 mice (n = 3–5 each, with experiments performed in triplicate). For a pseudo-operation, collagen I gel was injected into the Millipore chambers. Photographs were taken 4 days after implantation.
(§7) (A) In vivo angiogenesis in mouse DAS assay. Angiogenesis was induced by overexpressed human VEGF121 (KP-1/VEGF) or mouse FGF4 (KP-1/FGF) in human pancreatic cancer KP-1 cells at the mouse dorsal skin. Representative photographs are shown. […] Compounds were administered orally once daily for 4 days at the indicated doses. Data are the mean ± std. *: p < 0.05 and **: p < 0.01 compared to vehicle.

[13] = test system: FGF-driven in vivo angiogenesis (KP-1/FGF transfectants); test: Mouse dorsal air sac (DAS) assay, KP-1/FGF; details: 100 mg/kg, orally once daily for 4 days
Protocol: as §6, §7

[14] = test system: FGFR-driven proliferation; details: read-out: IC50, FGFR-driven proliferation in cell assays; cited from earlier work
[15] = 1 mg/kg orally twice daily for 28 days
[16] = 3 mg/kg orally twice daily for 28 days
[17] = 10 mg/kg orally twice daily for 28 days
[18] = 30 mg/kg orally twice daily for 28 days
[19] = 100 mg/kg orally twice daily for 28 days
[20] = 1 mg/kg orally twice daily for 14 days
[21] = 3 mg/kg orally twice daily for 14 days
[22] = 10 mg/kg orally twice daily for 14 days
[23] = 30 mg/kg orally twice daily for 14 days
[24] = 100 mg/kg orally twice daily for 14 days

T4 sequence (P21802 22-821): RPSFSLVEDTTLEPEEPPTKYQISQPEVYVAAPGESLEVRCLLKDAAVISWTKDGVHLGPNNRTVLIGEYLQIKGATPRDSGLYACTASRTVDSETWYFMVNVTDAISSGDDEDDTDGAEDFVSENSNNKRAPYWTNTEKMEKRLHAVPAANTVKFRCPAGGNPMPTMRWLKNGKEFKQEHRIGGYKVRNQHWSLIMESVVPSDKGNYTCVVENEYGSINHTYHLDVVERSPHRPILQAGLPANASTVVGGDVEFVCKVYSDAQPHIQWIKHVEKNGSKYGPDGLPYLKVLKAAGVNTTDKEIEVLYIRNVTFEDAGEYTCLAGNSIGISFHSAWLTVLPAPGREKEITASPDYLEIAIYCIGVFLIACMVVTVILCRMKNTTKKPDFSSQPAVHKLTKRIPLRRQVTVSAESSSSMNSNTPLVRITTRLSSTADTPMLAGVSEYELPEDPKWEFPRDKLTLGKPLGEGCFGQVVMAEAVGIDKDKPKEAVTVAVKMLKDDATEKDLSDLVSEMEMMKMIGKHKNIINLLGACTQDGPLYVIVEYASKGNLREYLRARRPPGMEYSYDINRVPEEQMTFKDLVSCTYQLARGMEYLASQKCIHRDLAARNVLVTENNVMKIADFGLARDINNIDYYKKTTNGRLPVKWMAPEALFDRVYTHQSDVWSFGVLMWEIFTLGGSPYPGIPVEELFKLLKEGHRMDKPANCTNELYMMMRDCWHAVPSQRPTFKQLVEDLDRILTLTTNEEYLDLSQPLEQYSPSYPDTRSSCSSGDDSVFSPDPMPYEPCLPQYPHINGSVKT
T6 sequence (P10721 26-976): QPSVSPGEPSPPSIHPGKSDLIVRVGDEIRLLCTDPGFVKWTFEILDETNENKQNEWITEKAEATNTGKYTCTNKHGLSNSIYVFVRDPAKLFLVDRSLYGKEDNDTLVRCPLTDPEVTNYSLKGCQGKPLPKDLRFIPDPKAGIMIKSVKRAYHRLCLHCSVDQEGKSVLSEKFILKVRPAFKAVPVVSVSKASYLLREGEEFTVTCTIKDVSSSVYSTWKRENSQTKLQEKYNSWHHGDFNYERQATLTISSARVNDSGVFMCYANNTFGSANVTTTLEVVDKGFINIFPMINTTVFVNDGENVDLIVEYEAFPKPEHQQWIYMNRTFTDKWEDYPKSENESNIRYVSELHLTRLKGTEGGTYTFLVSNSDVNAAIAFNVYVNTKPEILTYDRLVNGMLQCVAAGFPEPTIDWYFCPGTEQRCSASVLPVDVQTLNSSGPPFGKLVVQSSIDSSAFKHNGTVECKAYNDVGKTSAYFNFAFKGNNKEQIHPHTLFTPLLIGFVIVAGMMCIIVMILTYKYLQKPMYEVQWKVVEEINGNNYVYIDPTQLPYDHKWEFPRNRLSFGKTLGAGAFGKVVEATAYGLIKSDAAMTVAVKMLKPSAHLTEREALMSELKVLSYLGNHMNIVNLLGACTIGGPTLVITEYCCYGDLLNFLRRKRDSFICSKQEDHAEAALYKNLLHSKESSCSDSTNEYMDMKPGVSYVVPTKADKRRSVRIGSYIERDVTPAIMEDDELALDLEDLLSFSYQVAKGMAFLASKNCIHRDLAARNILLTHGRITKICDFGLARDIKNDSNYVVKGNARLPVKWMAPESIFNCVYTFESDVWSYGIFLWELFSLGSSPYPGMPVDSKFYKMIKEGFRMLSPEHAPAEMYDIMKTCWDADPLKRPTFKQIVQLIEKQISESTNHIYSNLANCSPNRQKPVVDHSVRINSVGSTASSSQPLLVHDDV
T2 sequence (P35916 25-1363): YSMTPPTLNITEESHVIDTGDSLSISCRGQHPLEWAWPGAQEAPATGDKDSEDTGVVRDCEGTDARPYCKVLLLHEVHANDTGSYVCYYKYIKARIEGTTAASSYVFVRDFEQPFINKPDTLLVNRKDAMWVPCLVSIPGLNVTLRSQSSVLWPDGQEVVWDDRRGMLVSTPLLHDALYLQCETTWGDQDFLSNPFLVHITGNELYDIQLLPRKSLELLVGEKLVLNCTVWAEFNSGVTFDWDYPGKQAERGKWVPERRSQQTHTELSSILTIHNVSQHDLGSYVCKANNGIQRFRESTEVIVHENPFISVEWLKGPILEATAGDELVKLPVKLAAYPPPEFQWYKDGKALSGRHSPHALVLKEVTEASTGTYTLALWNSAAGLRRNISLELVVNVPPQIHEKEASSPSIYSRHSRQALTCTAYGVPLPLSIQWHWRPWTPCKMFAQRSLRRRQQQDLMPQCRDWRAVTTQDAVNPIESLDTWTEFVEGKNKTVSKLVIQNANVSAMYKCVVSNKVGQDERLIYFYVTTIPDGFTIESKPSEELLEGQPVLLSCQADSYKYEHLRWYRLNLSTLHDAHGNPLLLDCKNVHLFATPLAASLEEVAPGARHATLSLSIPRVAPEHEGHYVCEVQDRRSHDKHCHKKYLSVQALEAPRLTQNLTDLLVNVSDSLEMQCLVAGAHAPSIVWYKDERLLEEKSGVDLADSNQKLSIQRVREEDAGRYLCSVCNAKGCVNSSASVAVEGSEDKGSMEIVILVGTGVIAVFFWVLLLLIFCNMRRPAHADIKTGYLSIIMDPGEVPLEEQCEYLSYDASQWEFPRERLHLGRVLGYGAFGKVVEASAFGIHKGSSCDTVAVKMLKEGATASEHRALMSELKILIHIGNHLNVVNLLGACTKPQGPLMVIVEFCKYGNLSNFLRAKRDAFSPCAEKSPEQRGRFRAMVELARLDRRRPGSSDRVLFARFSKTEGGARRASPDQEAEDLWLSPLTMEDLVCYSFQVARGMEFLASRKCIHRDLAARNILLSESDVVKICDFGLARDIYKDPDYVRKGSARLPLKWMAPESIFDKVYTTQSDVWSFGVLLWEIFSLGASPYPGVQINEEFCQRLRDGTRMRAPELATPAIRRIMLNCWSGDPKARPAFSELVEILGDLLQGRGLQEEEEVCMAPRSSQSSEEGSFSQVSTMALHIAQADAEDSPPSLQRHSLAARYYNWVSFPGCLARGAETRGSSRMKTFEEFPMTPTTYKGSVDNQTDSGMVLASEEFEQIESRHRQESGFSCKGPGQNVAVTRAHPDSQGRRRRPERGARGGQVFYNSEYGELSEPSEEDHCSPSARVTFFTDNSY
T5 sequence (P22607 23-806): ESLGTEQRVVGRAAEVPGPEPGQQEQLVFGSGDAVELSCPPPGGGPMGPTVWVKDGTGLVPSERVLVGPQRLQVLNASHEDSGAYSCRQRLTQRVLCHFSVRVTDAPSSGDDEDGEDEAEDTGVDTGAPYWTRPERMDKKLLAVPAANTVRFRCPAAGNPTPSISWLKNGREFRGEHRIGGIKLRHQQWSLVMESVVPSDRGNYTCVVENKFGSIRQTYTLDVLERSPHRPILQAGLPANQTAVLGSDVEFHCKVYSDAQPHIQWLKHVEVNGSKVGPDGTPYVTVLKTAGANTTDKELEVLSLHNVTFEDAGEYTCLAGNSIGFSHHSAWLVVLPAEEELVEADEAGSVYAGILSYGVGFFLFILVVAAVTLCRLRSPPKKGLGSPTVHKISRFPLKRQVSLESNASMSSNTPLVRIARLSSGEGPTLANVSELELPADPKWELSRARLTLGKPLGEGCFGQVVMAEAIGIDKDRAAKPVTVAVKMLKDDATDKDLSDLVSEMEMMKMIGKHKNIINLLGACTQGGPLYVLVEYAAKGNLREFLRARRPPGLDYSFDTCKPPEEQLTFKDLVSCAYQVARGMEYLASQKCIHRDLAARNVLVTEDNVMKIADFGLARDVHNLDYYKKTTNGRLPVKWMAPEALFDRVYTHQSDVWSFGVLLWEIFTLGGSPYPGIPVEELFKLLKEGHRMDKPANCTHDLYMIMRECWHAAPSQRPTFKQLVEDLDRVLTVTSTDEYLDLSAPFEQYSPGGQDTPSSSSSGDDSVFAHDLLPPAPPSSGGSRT
T3 sequence (P11362 22-822): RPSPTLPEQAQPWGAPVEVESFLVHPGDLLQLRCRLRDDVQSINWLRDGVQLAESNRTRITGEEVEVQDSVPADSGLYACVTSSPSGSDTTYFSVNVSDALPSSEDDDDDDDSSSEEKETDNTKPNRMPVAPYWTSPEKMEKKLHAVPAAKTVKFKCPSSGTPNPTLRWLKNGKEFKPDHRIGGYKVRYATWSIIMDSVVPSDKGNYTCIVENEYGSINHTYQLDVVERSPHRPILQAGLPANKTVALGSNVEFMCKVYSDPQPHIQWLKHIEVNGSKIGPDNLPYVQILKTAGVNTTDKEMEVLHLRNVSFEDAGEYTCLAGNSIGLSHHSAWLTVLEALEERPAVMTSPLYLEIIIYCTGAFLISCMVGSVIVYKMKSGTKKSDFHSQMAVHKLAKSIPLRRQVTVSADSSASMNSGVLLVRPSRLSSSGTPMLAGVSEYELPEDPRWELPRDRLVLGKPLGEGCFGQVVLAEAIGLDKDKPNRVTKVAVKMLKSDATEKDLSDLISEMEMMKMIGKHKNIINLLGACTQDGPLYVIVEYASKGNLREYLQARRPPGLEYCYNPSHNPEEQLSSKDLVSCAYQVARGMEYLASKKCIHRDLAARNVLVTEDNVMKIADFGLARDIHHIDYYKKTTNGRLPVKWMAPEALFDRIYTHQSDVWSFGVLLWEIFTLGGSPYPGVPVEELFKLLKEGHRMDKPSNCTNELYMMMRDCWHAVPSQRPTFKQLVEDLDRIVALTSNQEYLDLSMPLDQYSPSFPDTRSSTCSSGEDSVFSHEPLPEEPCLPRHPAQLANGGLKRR

COc1cc2nccc(Oc3ccc(NC(=O)NC4CC4)c(Cl)c3)c2cc1C(N)=O [lenvatinib, 4-[3-Chloro-4-(N’-cyclopropylureido)phenoxy]-7-methoxyquinoline-6-carboxamide]
Ki (VEGFR1 (FLT1)): 1.3 nM
Ki (VEGFR3 (FLT4)): 0.71 nM
Ki (FGFR1): 22 nM
Ki (FGFR2): 8.2 nM
Ki (FGFR3): 15 nM
Ki (KIT): 11 nM
IC50 (HUVECs [1]): 3.4 nM
IC50 (HUVECs [2]): 2.7 nM
IC50 (HUVECs [3]): 410 nM
IC50 (HUVECs [4]): 590 nM
IC50 (KP-1/VEGF transfectants): 19600 nM
IC50 (MDA-MB 435 (Melanoma)): 24200 nM
IC50 (MIApaca-II (Pancreas)): 33800 nM
IC50 (H460 (Lung)): 26300 nM
IC50 (SK-OV-3 (Ovary)): 26400 nM
IC50 (Colo205 (Colon)): 27500 nM
IC50 (A431 (Epidermoid)): 30800 nM
IC50 (DU145 (Prostate)): 30800 nM
ΔTV (%) lenvatinib (mg/kg) 1 [5, 15]: 55.7* %
ΔTV (%) lenvatinib (mg/kg) 3 [5, 16]: 56.9* %
ΔTV (%) lenvatinib (mg/kg) 10 [5, 17]: 40.2* %
ΔTV (%) lenvatinib (mg/kg) 30 [5, 18]: 21.2* %
ΔTV (%) lenvatinib (mg/kg) 100 [5, 19]: 25.7* %
ΔTV (%) lenvatinib (mg/kg) 1 [6, 20]: 56.1* %
ΔTV (%) lenvatinib (mg/kg) 3 [6, 21]: 49.9* %
ΔTV (%) lenvatinib (mg/kg) 10 [6, 22]: 30.1* %
ΔTV (%) lenvatinib (mg/kg) 30 [6, 23]: 15.3* %
ΔTV (%) lenvatinib (mg/kg) 100 [6, 24]: 12.5* %
ΔTV (%) lenvatinib (mg/kg) 1 (H460 (Lung) xenograft; [20]): 65.4%
ΔTV (%) lenvatinib (mg/kg) 3 (H460 (Lung) xenograft; [21]): 34.9* %
ΔTV (%) lenvatinib (mg/kg) 10 (H460 (Lung) xenograft; [22]): 16.3* %
ΔTV (%) lenvatinib (mg/kg) 30 (H460 (Lung) xenograft; [23]): 16.4* %
ΔTV (%) lenvatinib (mg/kg) 100 (H460 (Lung) xenograft; [24]): -0.8* %
ΔTV (%) lenvatinib (mg/kg) 1 [7, 20]: 52.3* %
ΔTV (%) lenvatinib (mg/kg) 3 [7, 21]: 39.6* %
ΔTV (%) lenvatinib (mg/kg) 10 [7, 22]: 12.2* %
ΔTV (%) lenvatinib (mg/kg) 30 [7, 23]: 8.3* %
ΔTV (%) lenvatinib (mg/kg) 100 [7, 24]: -15.6* %
ΔTV (%) lenvatinib (mg/kg) 1 [8, 20]: 43.8* %
ΔTV (%) lenvatinib (mg/kg) 3 [8, 21]: 23.1* %
ΔTV (%) lenvatinib (mg/kg) 10 [8, 22]: 12.8* %
ΔTV (%) lenvatinib (mg/kg) 30 [8, 23]: -4.5* %
ΔTV (%) lenvatinib (mg/kg) 100 [8, 24]: -21.3* %
ΔTV (%) lenvatinib (mg/kg) 1 [9, 20]: 41.7%
ΔTV (%) lenvatinib (mg/kg) 3 [9, 21]: 29.4* %
ΔTV (%) lenvatinib (mg/kg) 10 [9, 22]: 0.0* %
ΔTV (%) lenvatinib (mg/kg) 30 [9, 23]: -7.5* %
ΔTV (%) lenvatinib (mg/kg) 100 [9, 24]: -32.9* %
ΔTV (%) lenvatinib (mg/kg) 1 [10, 15]: -7.5* %
ΔTV (%) lenvatinib (mg/kg) 3 [10, 16]: -42.2* %
ΔTV (%) lenvatinib (mg/kg) 10 [10, 17]: -65.4* %
ΔTV (%) lenvatinib (mg/kg) 30 [10, 18]: -72.0* %
ΔTV (%) lenvatinib (mg/kg) 100 [10, 19]: -78.6* %
Losses of body weights ([11]; 100 mg/kg twice daily for 4 weeks, observed in 3 out of 7 models): < 10%
MTD at 4 weeks ([11]; mouse, in vivo, oral, tumor xenograft models, read-out: Maximum tolerated dose (MTD)): 100 mg/kg
Antitumor activity, SEKI model (SEKI model): no effect

CNC(=O)c1cc(Oc2ccc(NC(=O)Nc3ccc(Cl)c(C(F)(F)F)c3)cc2)ccn1 [sorafenib, reference compound]
Antiangiogenic activity, KP-1/VEGF DAS model [12]: selective antiangiogenic activity
Inhibition of FGF-driven in vivo angiogenesis, KP-1/FGF DAS assay [13]: did not inhibit
IC50 [14]: 2000 nM
